From patent US7964607B2, “Pyrazolo[3,4-d]pyrimidine compounds” (Pfizer Inc., priority 2007, dated 2011)
Where two headings read alike, the source gives them in different places.

Target: T1, human recombinant PDE9 enzyme (Homo sapiens, UniProt O76083)
T1 construct: made in house; host or cells: SF-9 insect cells
Assay: Phosphodiesterase 9 (PDE9) inhibitory activity, Scintillation Proximity (SPA) assay
Type: biochemical
Conditions: human recombinant PDE9 from SF-9 cells, 50 nM [3H]cGMP, room temperature, 30 min
How it was run: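 Recombinant human PDE9 from SF-9 cell lysate supernatant, diluted so that ≤20% of [3H]cGMP substrate was hydrolysed to 5′GMP. Reaction started with enzyme and run 30 min at room temperature with 2% DMSO final. SPA beads were counted after >300 min; background came from a high concentration of a PDE inhibitor.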

[1] = Examples 3-114, read-out: G5678A (U): IC50

T1 sequence (O76083 whole entry): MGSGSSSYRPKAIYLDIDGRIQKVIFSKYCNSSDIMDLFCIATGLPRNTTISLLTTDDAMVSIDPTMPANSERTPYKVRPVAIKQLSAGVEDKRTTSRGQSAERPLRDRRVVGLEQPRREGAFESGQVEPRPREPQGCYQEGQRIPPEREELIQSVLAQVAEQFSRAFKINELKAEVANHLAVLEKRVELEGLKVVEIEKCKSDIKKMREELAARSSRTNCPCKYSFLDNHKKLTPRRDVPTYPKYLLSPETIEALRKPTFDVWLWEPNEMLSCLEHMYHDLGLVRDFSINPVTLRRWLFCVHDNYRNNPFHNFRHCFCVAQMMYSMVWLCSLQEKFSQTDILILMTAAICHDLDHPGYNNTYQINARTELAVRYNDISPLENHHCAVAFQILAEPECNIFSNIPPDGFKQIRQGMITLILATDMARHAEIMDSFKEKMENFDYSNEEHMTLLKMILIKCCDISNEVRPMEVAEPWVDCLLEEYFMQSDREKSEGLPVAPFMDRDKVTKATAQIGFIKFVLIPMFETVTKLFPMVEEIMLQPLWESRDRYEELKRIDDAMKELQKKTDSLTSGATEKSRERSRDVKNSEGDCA

| SMILES | IC50 [1] [nM] | IC50 (additional compounds Ex. 115-228, read-out: G5678A (U):IC50) [nM] |
| --- | --- | --- |
| CC[C@@H]1CN(C(=O)c2cnc3ccccc3n2)C[C@H]1c1nc2c(cnn2C2CCOCC2)c(=O)[nH]1 [Example 110, 6-[(3S,4S)-4-ethyl-1-(quinoxalin-2-ylcarbonyl)pyrrolidin-3-yl]-1-(tetrahydro-2H-pyran-4-yl)-1,5-dihydro-4H-pyrazolo[3,4-d]pyrimidin-4-one] | 2.59 | – |
| CC[C@@H]1CN(Cc2ccccc2C#N)C[C@H]1c1nc2c(cnn2C2CCOCC2)c(=O)[nH]1 [Example 112, 2-({(3S,4S)-3-ethyl-4-[4-oxo-1-(tetrahydro-2H-pyran-4-yl)-45-dihydro-1H-pyrazolo[3,4-d]pyrimidin-6-yl]pyrrolidin-1-yl}methyl)benzonitrile] | 1.37 | – |
| CC[C@@H]1CN(Cc2cccc(C#N)c2)C[C@H]1c1nc2c(cnn2C2CCOCC2)c(=O)[nH]1 [Example 113, 3-({(3S,4S)-3-ethyl-4-[4-oxo-1-(tetrahydro-2H-pyran-4-yl)-4,5-dihydro-1H-pyrazolo[3,4-d]pyrimidin-6-yl]pyrrolidin-1-yl}methyl)benzonitrile] | < 1 | – |
| CC[C@@H]1CN(Cc2ccc(C#N)cc2)C[C@H]1c1nc2c(cnn2C2CCOCC2)c(=O)[nH]1 [Example 114, 4-({(3S,4S)-3-ethyl-4-[4-oxo-1-(tetrahydro-2H-pyran-4-yl)-45-dihydro-1H-pyrazolo[3,4-d]pyrimidin-6-yl]pyrrolidin-1-yl}methyl)benzonitrile] | 2.31 | – |
| Cc1cc(CN2CC(C)C(c3nc4c(cnn4C4CCCC4)c(=O)[nH]3)C2)n(C)n1 (stereo not drawn) [Example 133, 1-cyclopentyl-6-{(3,4-trans)-1-[(1,3-dimethyl-1H-pyrazol-5-yl)methyl]-4-methylpyrrolidin-3-yl}-1,5-dihydro-4H-pyrazolo[3,4-d]pyrimidin-4-one] | – | 33.7 |
